{"source": "patent US11780838B1", "about": "“Pyrrolo[3,2-b]quinoline compounds as antibacterial agents” (King Faisal University, priority 2023, dated 2023)", "key": {"[1]": {"system": "Mycobacterium tuberculosis H37Rv strain", "test": "Anti-tubercular properties (alamar blue microplate MIC)", "type": "cell-based", "conditions": "168 h, seven days at 37° C., read-out: anti-mycobacterial activity (MIC)"}, "DNA gyrase from E. coli": {"molecular_target": "T1, DNA gyrase from E. coli (Escherichia coli, UniProt P0AES4+P0AES6)", "T1 construct": "purchased Inspiralis", "T1 sequence (P0AES4 whole entry, one chain of several)": "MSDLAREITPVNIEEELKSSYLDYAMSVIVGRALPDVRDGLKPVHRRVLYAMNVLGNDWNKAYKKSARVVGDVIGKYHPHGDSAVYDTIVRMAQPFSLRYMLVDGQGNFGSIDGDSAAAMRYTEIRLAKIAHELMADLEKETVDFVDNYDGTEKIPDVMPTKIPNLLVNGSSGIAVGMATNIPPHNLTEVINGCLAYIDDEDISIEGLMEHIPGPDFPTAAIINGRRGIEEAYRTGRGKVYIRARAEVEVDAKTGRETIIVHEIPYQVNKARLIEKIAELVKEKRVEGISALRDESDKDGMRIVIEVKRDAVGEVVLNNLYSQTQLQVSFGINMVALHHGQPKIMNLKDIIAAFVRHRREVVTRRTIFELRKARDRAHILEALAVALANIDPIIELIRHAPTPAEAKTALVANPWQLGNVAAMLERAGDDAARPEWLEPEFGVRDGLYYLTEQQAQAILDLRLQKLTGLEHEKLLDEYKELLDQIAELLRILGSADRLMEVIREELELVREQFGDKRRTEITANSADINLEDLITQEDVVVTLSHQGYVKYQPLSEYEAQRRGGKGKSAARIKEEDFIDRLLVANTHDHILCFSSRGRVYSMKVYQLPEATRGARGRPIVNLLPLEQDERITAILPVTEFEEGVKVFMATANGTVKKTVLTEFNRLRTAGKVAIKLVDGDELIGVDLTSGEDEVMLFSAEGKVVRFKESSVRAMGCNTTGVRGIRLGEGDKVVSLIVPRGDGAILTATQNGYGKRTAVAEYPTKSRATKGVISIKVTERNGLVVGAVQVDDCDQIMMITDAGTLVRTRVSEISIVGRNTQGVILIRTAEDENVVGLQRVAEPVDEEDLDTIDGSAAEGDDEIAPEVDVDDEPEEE", "test": "Inhibitory activities on E. coli DNA gyrase (Inspiralis assay)", "type": "biochemical", "method": "Inhibitory potencies were investigated utilizing the Inspiralis assay on streptavidin-coated 96-well microtiter plates. First, the plates were rehydrated with buffer (20 mM Tris-HCl with pH 7.6, 0.01% w/v BSA, 0.05% v/v Tween 20, 137 mM NaCl) and the biotinylated oligonucleotide was then immobilized. After washing off the unbound oligonucleotide, the enzyme test was performed. […] Reaction solutions were incubated at 37° C. for 30 min. After that, the TF buffer (50 mM NaOAc with pH 5.0, 50 mM NaCl and 50 mM MgCl2) was added to terminate the enzymatic reaction. After additional incubation for 30 min at rt, during which biotinoligonucleotide-plasmid triplex was formed, the unbound plasmid was washed off using TF buffer and SybrGOLD in T10 buffer (10 mM Tris HCl with pH 8.0 and 1 mM EDTA) was added. The fluorescence was measured with a microplate reader (BioTek Synergy H4, excitation: 485 nm, emission: 535 nm). Initial screening was done at 100 or 10 μM concentration of inhibitors. […] GraphPad Prism software was used to calculate the IC50 values. The result is given as the average value of three independent measurements."}, "[2]": {"system": "Enterococcus faecium ATCC 35667", "test": "In vitro antibacterial activity (MIC, CLSI M07-A10 dilution)", "type": "cell-based", "conditions": "ATCC35667"}, "[3]": {"system": "Pseudomonas aeruginosa MTCC 741", "test": "In vitro antibacterial activity (MIC, CLSI M07-A10 dilution)", "type": "cell-based", "conditions": "MTCC741"}, "[4]": {"system": "Bacillus subtilis MTCC 441", "test": "In vitro antibacterial activity (MIC, CLSI M07-A10 dilution)", "type": "cell-based", "conditions": "MTCC441"}, "[5]": {"system": "Staphylococcus aureus ATCC 29213", "test": "In vitro antibacterial activity (MIC, CLSI M07-A10 dilution)", "type": "cell-based", "conditions": "ATCC29213"}, "[6]": {"system": "Escherichia coli MTCC 443", "test": "In vitro antibacterial activity (MIC, CLSI M07-A10 dilution)", "type": "cell-based", "conditions": "MTCC443"}, "[7]": {"system": "Staphylococcus aureus ATCC BAA-1556 (MERSA resistant)", "test": "In vitro antibacterial activity (MIC, CLSI M07-A10 dilution)", "type": "cell-based", "conditions": "ATCCBAA1556"}, "[8]": {"system": "Klebsiella pneumonia MTCC 618", "test": "In vitro antibacterial activity (MIC, CLSI M07-A10 dilution)", "type": "cell-based", "conditions": "Klebsiella pneumoniae, MTCC618"}, "[9]": {"system": "Staphylococcus epidermidis", "test": "In vitro antibacterial activity (MIC, CLSI M07-A10 dilution)", "type": "cell-based"}, "[10]": {"system": "Enterococcus faecium ATCC 51559 (VRE resistant)", "test": "In vitro antibacterial activity (MIC, CLSI M07-A10 dilution)", "type": "cell-based"}}, "note": "pIC50: −log10 of the molar value. Read-outs that look alike come from different tables or passages of the source."}
{"smiles": "CNc1cc(F)cc2cc3[nH]c(-c4ccc(C(=O)O)cc4CN(C)C4CCCCC4)cc3nc12", "note": "[Compound 4, 3-((cyclohexyl(methyl)amino)methyl)-4-(7-fluoro-5-(methylamino)-1H-pyrrolo[3,2-b]quinolin-2-yl)benzoic acid]", "values": [{"measurement": "MIC", "setting": "[1]", "value": 8, "unit": "µg/mL"}, {"measurement": "pIC50", "setting": "DNA gyrase from E. coli", "value": 7.49}]}
{"smiles": "CCCCCN(C)Cc1cc(C(=O)O)ccc1-c1cc2nc3c(NC)cc(F)cc3cc2[nH]1", "note": "[Compound 6, 4-(7-fluoro-5-(methylamino)-1H-pyrrolo[3,2-b]quinolin-2-yl)-3-((methyl(pentyl)amino)methyl)benzoic acid]", "values": [{"measurement": "MIC", "setting": "[2]", "value": 1, "unit": "µg/mL"}, {"measurement": "MIC", "setting": "[3]", "value": 1, "unit": "µg/mL"}, {"measurement": "MIC", "setting": "[4]", "value": 0.75, "unit": "µg/mL"}, {"measurement": "MIC", "setting": "[5]", "value": 1, "unit": "µg/mL"}, {"measurement": "MIC", "setting": "[6]", "value": 8, "unit": "µg/mL"}, {"measurement": "MIC", "setting": "[7]", "value": 1, "unit": "µg/mL"}, {"measurement": "MIC", "setting": "[8]; Klebsiella pneumonia MTCC 618, read-out: MIC", "value": 1.25, "unit": "µg/mL"}, {"measurement": "MIC", "setting": "[9]", "value": 1, "unit": "µg/mL"}, {"measurement": "MIC", "setting": "[10]", "value": 1.25, "unit": "µg/mL"}]}
{"smiles": "CN[C@H](CC(C)C)C(=O)N[C@H]1C(=O)N[C@@H](CC(N)=O)C(=O)N[C@H]2C(=O)N[C@H]3C(=O)N[C@H](C(=O)N[C@H](C(=O)O)c4cc(O)cc(O)c4-c4cc3ccc4O)[C@H](O)c3ccc(c(Cl)c3)Oc3cc2cc(c3O[C@@H]2O[C@H](CO)[C@@H](O)[C@H](O)[C@H]2O[C@H]2C[C@](C)(N)[C@H](O)[C@H](C)O2)Oc2ccc(cc2Cl)[C@H]1O", "note": "[Vancomycin, reference compound]", "values": [{"measurement": "MIC", "setting": "[8]", "value": "> 128", "unit": "µg/mL"}]}
